{"source": "patent US11712443B2", "about": "“17α-monoesters and 17α,21-diesters of cortexolone for use in the treatment of tumors” (COSMO TECHNOLOGIES LTD., priority 2014, dated 2023)", "key": {"Glucocorticoid Receptor": {"molecular_target": "T1, Glucocorticoid Receptor (Homo sapiens, UniProt P04150)", "T1 construct": "endogenous in cells; host or cells: human kidney epithelial cells", "T1 sequence (P04150 1-777)": "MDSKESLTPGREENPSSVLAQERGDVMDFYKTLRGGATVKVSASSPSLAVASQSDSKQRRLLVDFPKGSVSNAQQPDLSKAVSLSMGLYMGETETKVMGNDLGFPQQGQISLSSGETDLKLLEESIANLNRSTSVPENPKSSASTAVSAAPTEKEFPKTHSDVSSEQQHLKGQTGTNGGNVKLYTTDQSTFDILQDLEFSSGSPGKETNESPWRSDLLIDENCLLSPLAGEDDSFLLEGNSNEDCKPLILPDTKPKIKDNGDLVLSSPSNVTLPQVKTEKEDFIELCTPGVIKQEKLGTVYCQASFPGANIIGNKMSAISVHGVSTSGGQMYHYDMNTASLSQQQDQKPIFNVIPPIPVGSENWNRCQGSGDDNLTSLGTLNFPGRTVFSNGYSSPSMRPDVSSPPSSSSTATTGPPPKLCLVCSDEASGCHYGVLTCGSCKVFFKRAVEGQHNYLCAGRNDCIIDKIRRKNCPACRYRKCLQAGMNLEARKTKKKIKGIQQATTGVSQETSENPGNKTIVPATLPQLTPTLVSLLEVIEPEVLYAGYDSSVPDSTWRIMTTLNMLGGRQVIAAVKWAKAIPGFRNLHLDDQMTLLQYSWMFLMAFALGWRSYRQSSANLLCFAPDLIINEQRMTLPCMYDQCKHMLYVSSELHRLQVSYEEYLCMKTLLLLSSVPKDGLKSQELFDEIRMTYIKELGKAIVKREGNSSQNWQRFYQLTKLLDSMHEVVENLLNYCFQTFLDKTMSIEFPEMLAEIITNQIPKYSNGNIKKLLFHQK", "test": "GR transcriptional reporter assay, antagonist mode", "format": "cell-based", "conditions": "inhibition of luminescence induced by Dexamethasone; compared to RU486; FIG. 7", "description": "The androgen and glucocorticoid hormones elicit divergent and often opposing effects in cells, tissues, and animals. […] CB-03-10 GR antagonist and agonist activities were tested in an in vitro assay. Briefly, human kidney epithelial cells were transfected with DNA construct containing GR binding sites linked to luminescent based reporter molecule. After 24 hours, cells were treated under antagonist or agonist modes. After an additional 24 hours, luminescence which is proportional to GR agonist transcriptional activity was quantitated.\nAntagonist Assay was based on inhibition of luminescence induced by Dexamethasone (Dex).\nThe antagonist activity of CB-03-10 was compared to a known GR antagonist, Mifepristone (also called RU486) as shown in FIG. 7."}, "HT29 [1]": {"test_system": "HT29", "test": "In vitro proliferation, larger cancer cell line panel", "conditions": "HT29"}, "BxPC3": {"test_system": "BxPC3", "conditions": "human, 3 days"}, "MiaPaca2 cells [2]": {"test_system": "MiaPaca2 cells", "test": "Apoptosis induction, Annexin V / propidium iodide flow cytometry", "format": "cell-based", "conditions": "24 hours; control 11%; FIG. 9", "description": "CB-03-10 was evaluated to determine if the mechanism of cytotoxicity on cancer cell lines was mediated by apoptosis and cell cycle arrest. Cancer cell lines were seeded in 6-well flat bottom plates. After 24 hours test compounds or DMSO vehicle (negative control) were added. After an additional 24 hours cells were scraped and stained with fluorescein conjugated Annexin V and propidium iodide and analyzed by flow cytometry."}, "MiaPaca2 cells [3]": {"test_system": "MiaPaca2 cells", "test": "Cell cycle arrest, propidium iodide staining", "format": "cell-based", "conditions": "24 hours; FIG. 10", "description": "Apoptosis can occur at the G1/S or G2/M transition of the cell cycle. Cells were treated with CB-03-10 for 24 hours then fixed with paraformaldehyde and stained with propidium iodide. […] The lack of G1 block indicates no effect on p53. The S & G2/M blocks may indicate activity on cell cycle check point molecules. For S phase, a possible target is the cyclin dependent kinase 2 (CDK2). Gemzar and cisplatin are example drugs that act in S phase. For G2, a possible target is CDK1."}, "HT29 [4]": {"test_system": "HT29", "test": "MTT colorimetric assay, 72 h", "format": "cell-based", "conditions": "human, 72 h", "description": "The experiment was performed to test and define anticancer activity in vitro of Cortexolone 17α-benzoate and cortexolone 17α-valerate-21-propionate on cell lines representatives of epithelial intestinal tumors, namely HT29. The experiment method consisted in: • 1. Monolayer HT-29 cells were plated in: 96-wells plates at the density of 2×10^4 cells/mL. The cells plated were kept at 37° C. in 5% CO2 and left to attach for 24 h. • 2. […] After 72 h of treatment, the MTT colorimetric assay was performed."}, "[5]": {"test": "In vitro metabolism in human plasma", "format": "in vitro ADME", "conditions": "37 C; liquid chromatography; FIG. 13", "description": "To obtain some insights on the metabolism of CB-03-10 in human and rat plasma, a specific assay was designed. Briefly the compound was incubated at different time in human and rat plasma at 37 C. After incubation the samples were tested for presence of the intact compound by liquid chromatography."}, "stimulated PBMC": {"test_system": "stimulated PBMC", "test": "IC50 on stimulated PBMC (actively dividing cells)", "procedure": "The IC^50 in PBMC were tested in 2 different activation status:\nstimulated—actively dividing cells\nIC50 of the compounds was determined on fresh cells isolated from human blood (PBMC). The compounds toxicity was determined as follow: Therapeutic Index=Safety/Potency=IC50 stimulated PBMC_/IC50 cancer cell"}, "PC3": {"test_system": "PC3", "test": "ATP-dependent proliferation/viability assay (Cell Titer Glo), 3 days", "conditions": "3 days", "description": "(§1) The experiment was performed to test and to define the antitumor activity in vitro of cortexolone 17α-benzoate on LNCaP (AR+) and PC3 (AR^−), representative of Prostatic cancer cell lines with Androgen Receptor (AR) positive or negative expression, respectively. The experimental method consisted of: • 1. […] After 24 hours, 10 nM DHT (dihydrotestosterone) with or without anti-androgen compounds, or DMSO vehicle (negative control) was added to the cultures. • 3.\nas §1, with “define” for “define the”, “17α-valerate-21-propionate (CB-03-10)” for “17α-benzoate”, “AR” for “Androgen Receptor (AR)”"}, "LNCaP": {"test_system": "LNCaP", "test": "ATP-dependent proliferation/viability assay (Cell Titer Glo), 3 days", "conditions": "3 days", "description": "as §1\nas §1, with “define” for “define the”, “17α-valerate-21-propionate (CB-03-10)” for “17α-benzoate”, “AR” for “Androgen Receptor (AR)”"}, "Caspase 8 and Caspase 9": {"test_system": "Caspase 8 and Caspase 9", "test": "Caspase activity assay in MiaPaca2 cells", "format": "cell-based", "conditions": "20 or 50 μM, evident after 8 hours, corrected for viable cells", "procedure": "To better analyze the phenomenon the enzymatic activity of Caspase 8 (initiator caspase for Extrinsic Pathway) and Caspase 9 (initiator caspase for Intrinsic Pathway) and of Caspases 3 and 7 (effector caspases) were measured.\nAfter 8, 24, & 48 hours incubation with test compounds, cells were lysed in buffer containing the caspase 3/7 or 8 or 9 substrate and a stable luciferase in proprietary buffers. The lysates were transferred to white opaque plates before measuring luminescence in a Tecan S afire instrument. Parallel plates treated identically, were used to determine viable cells. All caspase activities were corrected for the number of viable cells."}}}
{"compound": "CCCCC(=O)O[C@]1(C(=O)COC(=O)CC)CC[C@H]2[C@@H]3CCC4=CC(=O)CC[C@]4(C)[C@H]3CC[C@@]21C", "note": "[CB-03-10, cortexolone 17α-valerate-21-propionate]", "values": [{"measurement": "GR antagonist activity", "setting": "Glucocorticoid Receptor", "value": "potent antagonist (10 times less than RU486)"}, {"measurement": "Therapeutic Index = IC50 resting PBMC/IC50 cancer cell", "setting": "HT29 [1]; Table IV", "value": 3}, {"measurement": "Therapeutic Index = IC50 stimulated PBMC/IC50 cancer cell", "setting": "HT29 [1]; Table VII", "value": 3}, {"measurement": "Therapeutic Index = IC50 resting PBMC/IC50 cancer cell", "setting": "BxPC3", "value": 3}, {"measurement": "Therapeutic Index = IC50 stimulated PBMC/IC50 cancer cell", "setting": "BxPC3", "value": 3}, {"measurement": "cells in apoptosis (early and late apoptosis), total", "setting": "MiaPaca2 cells [2]", "value": 28, "unit": "%"}, {"measurement": "cell cycle arrest", "setting": "MiaPaca2 cells [3]", "value": "induces an S phase block at lower concentrations then a G2/M block at higher concentration"}, {"measurement": "Therapeutic Index (TI), Stimulated PBMC", "setting": "HT29 [4]", "value": 3}, {"measurement": "degradation in human plasma", "setting": "[5]", "value": "rapidly degraded to CB-03-05 in human plasma"}, {"measurement": "Therapeutic Index = IC50 resting PBMC/IC50 cancer cell", "setting": "stimulated PBMC; PBMC Stim, healthy lymphocyte, Table IV", "value": 1}, {"measurement": "Therapeutic Index = IC50 stimulated PBMC/IC50 cancer cell, AVERAGE", "setting": "stimulated PBMC; average across the 7 cancer cell lines, Table VII", "value": 4}, {"measurement": "IC50", "setting": "PC3; Homo sapiens, 72 h, PC3 (AR-), 10 nM DHT, Examples 1-2 Experiment 2, nonlinear regression least squares fit, additional experiments", "value": 50, "unit": "µM"}, {"measurement": "Therapeutic Index = IC50 resting PBMC/IC50 cancer cell", "setting": "PC3; human", "value": 2}, {"measurement": "Therapeutic Index = IC50 stimulated PBMC/IC50 cancer cell", "setting": "PC3; human", "value": 2}, {"measurement": "IC50", "setting": "LNCaP; Homo sapiens, LNCaP, 72 h, LNCaP (AR+), 10 nM DHT, Examples 1-2 Experiment 1, sigmoidal dose response fit", "value": 13, "unit": "µM"}, {"measurement": "Therapeutic Index = IC50 resting PBMC/IC50 cancer cell", "setting": "LNCaP; human", "value": 9}, {"measurement": "Therapeutic Index = IC50 stimulated PBMC/IC50 cancer cell", "setting": "LNCaP; human", "value": 9}, {"measurement": "caspase 8 and 9 activity, increase compared to control", "setting": "Caspase 8 and Caspase 9", "value": "≤ 7", "unit": "fold"}]}
